Laboratory results reported in PMC4145316, “Cytotoxic and Apoptosis-Inducing Activity of Triterpene Glycosides from Holothuria scabra and Cucumaria frondosa against HepG2 Cells” (Marine Drugs, 2014).
≈ marks a conversion by molar mass, not a printed value.

Tests used:
[1] = system: human liver (HL-7702) cells; assay: MTT cytotoxicity assay, normal HL-7702 cells; assay type: cell-based; conditions: for IC50: Homo sapiens, L02, read-out: IC50 (μg/mL) HL-7702; for IC50 / IC50 (μg/mL) HL-7702: MTT assay, normal hepatocytes, means ± SD (n = 3); for Ratio (HL-7702/HepG2): ratio of IC50 values against HL-7702 and HepG2 cells, selective cytotoxicity
Protocol: (§1) Human hepatoma (HepG2), human cervical cancer (HeLa), human leukemia (K562) and human liver (HL-7702) cells were obtained by Shanghai Institute of Biochemistry and Cell Biology, and maintained in the logarithmic phase of growth in RPMI-1640 complete medium supplemented with 2 mM L-glutamine (Sigma Chemical Co., Saint Louis, MO, USA), 100 IU/mL penicillin, 100 μg/mL streptomycin and 10% FCS at 37 °C under humidified air with 5% CO2.
(§2) The effect of compounds 1–13 on the viability of HepG2, HeLa, K562 and HL-7702 cells was determined by MIT assay as described previously. Briefly, the tumor and normal cells were seeded at 1 × 10^4 cells/well in a 96-well microtiter plate and incubated at 37 °C in a humidified atmosphere with 5% CO2. After 24 h, compounds 1–13, the positive drug CDDP or RPMI-1640 medium were added into each well, and the plates were incubated at 37 °C for the indicated time. Each concentration was repeated four wells. 50 μL of MTT solution (2 mg/mL) was added to each well 4 h before incubation end, and incubated further for 4 h. The plates were centrifuged (1400× g, 5 min) and the untransformed MTT was removed carefully by pipetting. To each well, 150 μL of DMSO was added and the absorbance was evaluated in an ELISA reader at 570 nm after 15 min. The inhibitory rates and 50% inhibitory concentrations (IC50) values towards cell viability were calculated by NDST software. Each test was performed in triplicate.

[2] = system: human leukemia (K562) cells; assay: MTT cytotoxicity assay, K562 cells; assay type: cell-based; conditions: for IC50: Homo sapiens, K562, means ± SD (n = 3), read-out: IC50 (μg/mL) K562; for IC50 (μg/mL) K562: means ± SD (n = 3)
Protocol: as §1, §2

[3] = system: human cervical cancer (HeLa) cells; assay: MTT cytotoxicity assay, HeLa cells; assay type: cell-based; conditions: means ± SD (n = 3); for IC50: Homo sapiens, HeLa, read-out: IC50 (μg/mL) HeLa
Protocol: as §1, §2

[4] = system: human hepatoma (HepG2) cells; assay: MTT cytotoxicity assay, HepG2 cells; assay type: cell-based; conditions: for IC50: Homo sapiens, HepG2, means ± SD (n = 3), read-out: IC50 (μg/mL) HepG2; for IC50 (μg/mL) HepG2: means ± SD (n = 3)
Protocol: as §1, §2

[5] = system: human gastric cancer MKN-45 cells; conditions: read-out: IC50 against MKN-45 cells; cited from earlier work
HeLa cells = system: HeLa cells; set-up: method as in PMID 18288810; conditions: cited from earlier work

Molecule	IC50 [1] [µg/mL]	Ratio (HL-7702/HepG2) [1]	IC50 [2] [µg/mL]	IC50 [3] [µg/mL]	IC50 [4] [µg/mL]	IC50 (μg/mL) HL-7702 [1] [µg/mL]	IC50 (μg/mL) K562 [2] [µg/mL]	IC50 (μg/mL) HeLa [3] [µg/mL]	IC50 (μg/mL) HepG2 [4] [µg/mL]	Ratio (HL-7702/HepG2) ([1]; listed as 10)	IC50 [5] [nM]	IC50 against HeLa cells (HeLa cells) [µg/mL]
CO[C@@H]1[C@@H](O)[C@H](O[C@@H]2[C@@H](O)[C@H](O[C@H]3[C@H](O)[C@@H](O[C@@H]4OC[C@@H](O)[C@H](O)[C@H]4O)[C@H](O[C@H]4[C@H](OC5CC[C@]6(C)[C@H]7CCC89C(=O)O[C@@](C)(CCCC(C)C)C8[C@@H](OC(C)=O)C[C@@]9(C)C7=CC[C@H]6C5(C)C)OC[C@@H](OS(=O)(=O)O)[C@@H]4O)O[C@@H]3C)OC[C@H]2O)O[C@H](CO)[C@H]1O (stereo partly drawn) [Frondoside A (11), Frondoside A]	5.42 ± 0.98 (≈ 4.13 µM)	1.31	3.76 ± 0.05 (≈ 2.86 µM)	3.3 ± 0.05 (≈ 2.51 µM)	4.14 ± 0.57 (≈ 3.15 µM)							
24-Dehydro frondoside A6 [24-Dehydro frondoside A6 (13)]		2.12				7.55 ± 0.83	5.61 ± 1.05	3.16 ± 0.34	3.57 ± 0.54			
CO[C@@H]1[C@@H](O)[C@H](CO)O[C@@H](O[C@H]2[C@@H](O)[C@@H](O[C@H]3[C@@H](O)[C@@H](O[C@H]4OC[C@@H](O)[C@@H](O)[C@@H]4O)[C@H](O[C@H]4[C@H](O[C@H]5CC[C@@]6(C)[C@H](CC=C7[C@@H]6CC[C@]68C(=O)O[C@](C)(CCCC(C)C)[C@H]6[C@H](OC(C)=O)C[C@@]78C)C5(C)C)OC[C@@H](OS(=O)(=O)O)[C@H]4O)O[C@@H]3C)OC[C@@H]2O)[C@@H]1O [Frondoside A1 (10), Frondoside A1]		2.60				4.96 ± 1.10 (≈ 3.78 µM)	2.21 ± 0.56 (≈ 1.68 µM)	2.03 ± 0.17 (≈ 1.55 µM)	1.91 ± 0.03 (≈ 1.45 µM)	more than 2		
C[C@H]1O[C@@H](O[C@H]2[C@H](O[C@H]3CC[C@]4(C)C5=C[C@H](O)C67C(=O)O[C@@](C)(C8CCC(C)(C)O8)[C@@]6(O)CC[C@@]7(C)[C@@H]5CCC4C3(C)C)OC[C@@H](OS(=O)(=O)[O-])[C@@H]2O)[C@H](O)[C@@H](O)[C@@H]1O.[Na+] (stereo partly drawn) [Holothurin B (3), Holothurin B]		1.50				2.69 ± 0.45	3.64 ± 0.04	2.05 ± 0.11	1.79 ± 0.02		1590	
okhotosides B2												13.0
HS-1 [HS-1 (5)]		1.18				7.19 ± 0.20	12.95 ± 1.54	3.20 ± 0.32	6.10 ± 0.33			
okhotosides B3												17.8
Frondoside A6 [Frondoside A6 (12)]		2.39				6.05 ± 0.67	6.59 ± 0.11	3.75 ± 0.51	2.53 ± 0.66			
Scabraside D [Scabraside D (8)]		1.32				4.40 ± 0.22	10.06 ± 1.06	3.84 ± 0.42	3.33 ± 0.33			
CO[C@@H]1[C@@H](O)[C@H](O[C@@H]2[C@@H](O)[C@H](O[C@H]3[C@H](O)[C@@H](O)[C@H](O[C@H]4[C@H](O[C@H]5CC[C@]6(C)C7=C[C@H](O)C89C(=O)O[C@@](C)(CCC=C(C)C)[C@@]8(O)CC[C@@]9(C)C7CCC6C5(C)C)OC[C@@H](OS(=O)(=O)[O-])[C@@H]4O)O[C@@H]3C)O[C@H](CO)[C@H]2O)O[C@H](CO)[C@H]1O.[Na+] (stereo partly drawn) [24-Dehydro echinoside A (2), 24-Dehydro echinoside A]		1.92				3.75 ± 0.40	6.15 ± 0.24	2.06 ± 0.27	1.95 ± 0.09		1600	
CO[C@@H]1[C@@H](O)[C@H](O[C@@H]2[C@@H](O)[C@H](O[C@H]3[C@H](O)[C@@H](O)[C@H](O[C@H]4[C@H](O[C@H]5CC[C@]6(C)C7=C[C@H](O)[C@@]89C(=O)O[C@@](C)(C%10CCC(C)(C)O%10)[C@@]8(O)CC[C@@]9(C)[C@@H]7CC[C@H]6C5(C)C)OC[C@@H](OS(=O)(=O)O)[C@@H]4O)O[C@@H]3C)O[C@H](CO)[C@H]2O)O[C@H](CO)[C@H]1O (stereo partly drawn) [Holothurin A (6), Holothurin A]	3.85 ± 0.32 (≈ 3.21 µM)	1.11	8.94 ± 0.01 (≈ 7.45 µM)	3.76 ± 0.47 (≈ 3.14 µM)	3.46 ± 0.33 (≈ 2.88 µM)						2370	
Holothurin B4 [Holothurin B4 (4)]		1.69				4.58 ± 0.54	3.55 ± 0.53	2.71 ± 0.54	2.71 ± 0.12			
Scabraside B [Scabraside B (9)]		1.51				11.03 ± 1.37	11.85 ± 2.26	4.44 ± 0.85	7.29 ± 0.62			
CO[C@@H]1[C@@H](O)[C@H](O[C@@H]2[C@@H](O)[C@H](O[C@H]3[C@H](O)[C@@H](O)[C@H](O[C@H]4[C@H](O[C@H]5CC[C@]6(C)C7=C[C@H](O)[C@]89C(=O)O[C@@](C)(C(O)CCC(C)C)[C@@]8(O)CC[C@@]9(C)[C@@H]7CC[C@H]6C5(C)C)OC[C@@H](OS(=O)(=O)[O-])[C@@H]4O)O[C@@H]3C)O[C@H](CO)[C@H]2O)O[C@H](CO)[C@H]1O.[Na+] (stereo partly drawn) [Holothurin A1 (7), Holothurin A1]		1.24				3.59 ± 0.05	6.50 ± 0.01	2.84 ± 0.09	2.90 ± 0.21			
CC(C)CCC[C@]1(C)OC(=O)C23[C@@H](O)C=C4[C@@H](CC[C@H]5C(C)(C)C(O[C@@H]6OC[C@@H](OS(=O)(=O)O)[C@H](O)[C@H]6O[C@@H]6O[C@H](C)[C@@H](O)[C@H](O)[C@H]6O)CC[C@]45C)[C@]2(C)CC[C@@]31O (stereo partly drawn) [echinoside B, reference compound]											180	
N.N.[Cl][Pt][Cl] [CDDP, cis-diamminedichloroplatinum, reference compound]		2.18				4.48 ± 0.41	2.99 ± 0.24	3.41 ± 0.37	2.05 ± 0.13			
